This note sets out measurements from patent EP0600092A1, “THIAZOLE DERIVATIVE” (OTSUKA PHARMACEUTICAL CO., LTD., priority 1992, dated 1993).

For this assay, the system named is human neutrophilic leukocyctes. As to the kind of experiment: Activity for inhibiting the generation of O2- in human neutrophilic leukocytes (FMLP-stimulated, ferricytochrome C method). The format is cell-based. Conditions: Leukocyte, O₂⁻ generation stimulated with 3×10⁻⁷ M FMLP at 37°C, cytochalasin B 5 µg/ml, pre-incubated with test compound 20 minutes, 4 minutes reduction, absorbance 550 nm, read-out: IC₅₀. As for the experimental part: Activity for inhibiting the generation of O₂⁻ in human neutrophilic leukocyctes
Human neutrophilic leukocyctes were prepared in accordance with the method of M. Markert et al. [Methods in Enzymology, vol. 105; pp. 358-365 (1984)]. That is, a whole blood obtained from a healthy adult and treated by anticoagulation method was subjected to a dextranhypotonic treatment to obtain leukocyte cells. The leukocycte cells were then subjected to a density gradient ultracentrifugation by Ficoll-Paque to obtain a neutrophilic leukocyte fraction.
O₂⁻ generation was examined by the ferricytochrome C method in accordance with the mehtod of B.N. Cronstein et al. [Journal of Experimental Medicine, vol. 158, pp. 1160-1177 (1983)]. That is, […] of neutrophilic leukocytes were stimulated with 3×10⁻⁷ M of N-formyl-L-methionyl-L-leucyl-L-phenylalanine (FMLP) at 37°C in the presence of 1.3 mg/ml of ferricytochrome C and 5 µg/ml of cytochalasin B in a Hepes-buffered Hank's solution (pH 7.4); the amount of ferricytochrome C formed by 4 minutes of reduction was determined by measuring an absorbance at a wavelength of 550 nm using a spectrophotometer; an absorbance in the presence of 25.1 µg/ml of superoxide dismutase (SOD) was also measured; the difference of the two absorbances was taken as the amount of O₂⁻ generated. Each test compound was dissolved in dimethyl sulfoxide (DMSO); the solution was added to neutrophilic leukocytes before the addition of FMLP; then, the neutrophilic leukocytes were pre-incubated at 37°C for 20 minutes. By using the amount of O₂⁻ generated when the test compound solution was added and the amount of O₂⁻ generated when only the solvent (DMSO) was added, a ratio of inhibition (%) was calculated, and the activity for inhibiting O₂⁻ generation was expressed as 50% inhibitory concentration (IC₅₀).
Turning to `CCOc1ccc(-c2nc(-c3ccc(C(N)=S)cc3)cs2)cc1OCC` [Example 17], the IC50 stood at 66 nM.
Regarding `CCOc1ccc(-c2nc(-c3ccc(C(=N)NO)cc3)cs2)cc1OCC` [Example 18], the IC50 was determined as 13 nM.
For `CCOc1ccc(-c2nc(-c3ccc(C(=N)SC)cc3)cs2)cc1OCC` [Example 19] the value was 200 nM.
For `CCOc1ccc(-c2nc(-c3ccc(NC(N)=S)cc3)cs2)cc1OCC` [Example 20] the value was 30 nM; for `CCOc1ccc(-c2nc(-c3cnccn3)cs2)cc1OCC` [Example 23], 72 nM; for `CCOc1ccc(-c2nc(-c3cccc(C(N)=S)n3)cs2)cc1OCC` [Example 24], 55 nM.
With `CCOc1ccc(-c2nc(-c3cccc(C(=N)SC)n3)cs2)cc1OCC` [Example 25], the IC50 amounted to 330 nM.
For `CCOc1ccc(-c2nc(-c3cc(N4CCN(C)CC4)ccn3)cs2)cc1OCC` [Example 27] the value was 750 nM; for `CCOc1ccc(-c2nc(-c3cccc(C(O)CN4CCN(C)CC4)n3)cs2)cc1OCC` (stereo not shown) [Example 28], 450 nM; for `CCOc1ccc(-c2nc(-c3cccc(C(=N)NO)n3)cs2)cc1OCC` [Example 29], 230 nM.
In the case of `CCOc1ccc(-c2nc(-c3ccc(O)c(-c4nnn[nH]4)c3)cs2)cc1OCC` [Test compound 5, 2-(3,4-Diethoxyphenyl)-4-[3-(1,2,3,4-tetrazol-5-yl)-4-hydroxyphenyl]thiazole], the IC50 came out at 240 nM.
Then `COc1ccc(-c2nc(-c3ccc(O)c(C(=O)NO)c3)cs2)cc1OC` [Test compound 13, Disodium [2-(3,4-dimethoxyphenyl)-4-thiazolyl]salicylhydroxamate], with 600 nM; and `COc1ccc(-c2nc(-c3cccc(NC(=N)SC)c3)cs2)cc1OC` [Test compound 16, 1-{3-[2-(3,4-Dimethoxyphenyl)-4-thiazolyl]phenyl}-2-methylisothiourea hydroiodide], with 350 nM.
